From US20240041878A1, “APELIN RECEPTOR MODULATORS FOR TREATMENT OF A DISORDER OR DISEASE ASSOCIATED WITH BBB PERMEABILITY” (BioAge Labs, Inc., priority 2022, published 2024)

Key:
[1] = biological target: T1, apelin receptor (Homo sapiens, UniProt P35414); details: Ason et al., JCI Insight 2020; cited from earlier work
T1 sequence (P35414 1-380): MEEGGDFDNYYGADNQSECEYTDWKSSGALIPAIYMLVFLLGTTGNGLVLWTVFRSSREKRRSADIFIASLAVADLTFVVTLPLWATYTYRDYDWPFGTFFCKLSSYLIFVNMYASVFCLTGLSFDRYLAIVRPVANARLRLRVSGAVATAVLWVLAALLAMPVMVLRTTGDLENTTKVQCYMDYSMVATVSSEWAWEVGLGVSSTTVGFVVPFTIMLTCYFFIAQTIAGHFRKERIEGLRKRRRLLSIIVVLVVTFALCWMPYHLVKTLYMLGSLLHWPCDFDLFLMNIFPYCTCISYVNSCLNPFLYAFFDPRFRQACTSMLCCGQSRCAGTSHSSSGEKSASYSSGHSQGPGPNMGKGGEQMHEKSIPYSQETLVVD

[2] = system: Mouse astrocyte cells; assay: CXCL1 and IL-6 ELISA of astrocyte culture media after RAC treatment; type: cell-based
Procedure: To stimulate astrocytes into a reactive state found in aging and neurodegenerative diseases per previous publications (Liddelow et al., 2017; Barbar et al., 2020), a combination of the cytokines TNF-α and IL-1α, and complement factor C1q, were added at 30 ng/mL, 3 ng/mL, and 400 ng/mL, respectively, into astrocyte culture media to make 'reactive astrocyte cocktail' (RAC) media. […] Bachem, Cat. #4029110), BAY-11-7082 (50 μM; Abcam, Cat. #ab141228) or equal volume of vehicle (0.01% DMSO in PBS) (hereafter referred to as 'RAC treatment'). Cells in Groups 3-6 were treated with RAC for 24 hours, with or without the test compounds (n=4 per group). • Group 1: Control [CON] • Group 2: CON+BGE-105 (50 nM) [CON+105] • Group 3: Reactive control treated with RAC only [RAC] • Group 4: RAC+BGE-105 (50 nM) [RAC+105] • Group 5: RAC+Pyrm-Apelin-13 (50 nM) • Group 6: RAC+BAY-11-7082 (NF-κB inhibitor; 50 μM) [RAC+BAY] Media from each tested cell group was collected for cytokine release analysis. Cells were lysed for RNA collection and RT-PCR was performed to synthesis cDNA under standard conditions. Next, transcriptome analysis was performed to determine the expression level of astrocyte genes or astrocyte responsive genes. Changes of expression was normalized to β-actin (FIGS. 8 and 9). Exemplary biomarkers include CCL2, CXCL10, CXCL11, CXCL1, CXCL2, CXCL3, CXCL8, EDN1, […]3, CIS, CTRL, C3, CFB, VEGF, and IL-6. For analysis of cytokines secreted by astrocytes, culture media was collected after RAC treatment, centrifuged at 10,000 RPM for 5 minutes to pellet any debris, and supernatant was transferred to a new tube and assayed immediately or frozen at -80° C. For individual analysis of CXCL1 or IL-6 concentrations, cell culture supernatant was diluted 1:50 or 1:10, respectively, and assessed using mouse-specific ELISA kits per manufacturer's protocols (R&D Systems, Cat. #DY453 and #DY406).

[3] = system: 26 month-old mice; assay: Mouse Cytokine Array Panel on plasma of aged mice; type: in vivo; details: 50 mg/kg BID P.O. one week, 10 of 40 cytokines detectable
Procedure: The mice were handled in accordance with principles and guidelines established by the “Guide for the Care and Use of Laboratory Animals” and overseen by the BioAge Lab's institutional animal care and use committee (IACUC). Mice were housed conventionally in a constant temperature (20-22° C.) and humidity (40%-60%) animal room with a 12/12 h light/dark cycle and free access to food and water. 26 month-old mice were randomized based on the body weight and body condition scores to two groups (vehicle or BGE-105, n=8). 4 month-old female mice were used as an additional control group (vehicle, n=4). Mice were administered P.O. vehicle or BGE-105 at 50 mg/kg (BID) for one week. After completion of dosing, blood samples were collected via retro-orbital bleeding under isoflurane anesthesia into K2-EDTA tubes to prevent coagulation. Mice were euthanized via transcardiac perfusion under isoflurane anesthesia. Whole blood was centrifuged to isolate plasma, which was stored at −80° C. until further experimentation.
For qualitative analysis of 40 different cytokines, plasma samples were assessed with the Mouse Cytokine Array Panel (R&D Systems) according to manufacturer's instructions. […] The optical of each dot on the array serves as a relative measure of cytokine abundance (e.g., a more intensely-stained dot denotes more cytokine present in the sample) and was analyzed with ImageJ software (NIH).

[4] = system: 26-month-old female C57BL/6 mice; assay: Age-dependent BBB permeability model, Evans blue assay; type: in vivo, mouse; details: 50 mg/kg BID P.O. one week; aged versus aged+BGE-105; p<0.01
Procedure: The mice were handled in accordance with principles and guidelines established by the “Guide for the Care and Use of Laboratory Animals” and overseen by the BioAge Lab's institutional animal care and use committee (IACUC). Mice were housed conventionally in a constant temperature (20-22° C.) and humidity (40%-60%) animal room with a 12/12 h light/dark cycle and free access to food and water.
For assessment of BGE-105 activity, the age-dependent BBB permeability model was established using 26-month-old female C57BL/6 mice. Mice were randomized based on the body weight and body condition scores to two groups (vehicle or BGE-105, n=8). Mice were administered P.O. vehicle (Control) or BGE-105 via P.O. at 50 mg/kg (BID) for one week (7 days). See FIG. 4B for a schematic of the protocol. The BBB permeability was measured via Evans blue assay. Mice were intravenously injected with Evans Blue (2%, 75 ul/30 g BW). […]
Frozen olfactory bulb and hippocampus were placed in 200 μl of extraction buffer (50% trichloroacetic acid in formamide) for 24 hours. […] Endpoint fluorescence was recorded (620 nm excitation, 680 nm emission) with a SpectraMax iD5 (Molecular Devices), normalized to tissue weight, and relative treatment-related change in fluorescence (a measure of blood-brain barrier leakage) was calculated compared to untreated aged mice.

COc1cccc(OC)c1-n1c(NS(=O)(=O)[C@@H](C)[C@H](C)c2ncc(C)cn2)nnc1-c1cncc(C)c1 [BGE-105, (2S,3R)—N-(4-(2,6-dimethoxyphenyl)-5-(5-methyl-3-pyridinyl)-4H-1,2,4-triazol-3-yl)-3-(5-methyl-2-pyrimidinyl)-2-butanesulfonamide]
activation of the apelin receptor [1]: known to activate | concentration of CXCL1 and IL-6 in media of control astrocytes ([2]; CON+105 (50 nM) versus CON): no or minimal impacts | astrocyte release of CXCL1 (FIG. 9) ([2]; RAC+105, BGE-105 50 nM, versus RAC, p=0.0032): greatly reduced | CXCL1 concentration/release (FIG. 12) ([2]; RAC+BGE-105 50 nM): about 40000 pg/ml | IL-6 concentration/release (FIG. 12) ([2]; RAC+BGE-105 50 nM): 5000 to 10000 pg/mL | astrocytic release of IL-6 (FIG. 9) ([2]; RAC+BGE-105, 50 nM, versus RAC, p=0.0008): reduced | average decrease of optical density of the detectable cytokines in plasma cytokine array [3]: 28% | change of age-induced increase in BBB permeability in the OB [4]: −28%
